Laboratory results: article PMC10525924, “Engineering and Purification of Microcin C7 Variants Resistant to Trypsin and Analysis of Their Biological Activity” (Antibiotics, 2023)
In brackets after ≈: the same amount, converted by molar mass. Where a SMILES comes first, the peptide text is derived from it.

Key:
E. coli K88 = test: microbe, parasite or virus in culture; type: cell-based; conditions: agar diffusion; for bacteriostatic effect on indicator strain K88: fermentation supernatant, not trypsin-treated; for antimicrobial activity after trypsin treatment, K88 / Diameters of the inhibition zones, Trypsin-Treated Group, K88: supernatant treated with trypsin 50 μg/mL, 37 °C, 3 h; for Diameters of the inhibition zones, Trypsin-Untreated Group, K88: 200 μL fermentation supernatant, 1 × 10^5 CFU/mL, 4 °C 1 h then 37 °C 24 h, chloramphenicol 100 μL of 0.25 μg/mL; for Diameters of the inhibition zones, Trypsin-Untreated Group, K88 / Diameters of the inhibition zones, Trypsin-Treated Group, K88: dash = no zone; for Diameters of the inhibition zones, Trypsin-Treated Group, K88: pH 6.8, 37 °C 24 h
Method: (§1) The pH was adjusted to 6.8.
(§2) The fermentation supernatants and pure products were used to characterize the bacteriostatic effects of McC variants by the agar diffusion and microdilution methods. Yej^+rimL^− and E. coli K88 indicator bacteria were applied. The serotype of E. coli K88 was O149:K91, K88ac, a clinically isolated strain, and provided by the College of Veterinary Medicine, China Agricultural University. The indicated bacteria were diluted to 1 × 10^5 CFU/mL and added to plate medium cooled to 50 °C. Two hundred microliters of supernatants were added to each dish, and diffusion was performed at 4 °C for 1 h. After incubation at 37 °C for 24 h, the diameters of the inhibition zones were determined. One hundred microliters of 0.25 μg/mL chloramphenicol was used as a control. The MICs of the pure McC variants were determined by microdilution in a sterilized 96-well microplate. The McC variants were serially diluted 2 times in 96-well microplates with LB medium. The concentrations of the McC variants ranged from 0.125 to 100 µg/mL. Each well was inoculated with 10 μL of overnight bacterial culture at a concentration of 1.0 × 10^5 CFU/mL and incubated at 37 °C for 24 h. A microplate reader was used to automatically observe changes in absorbance at 600 nm in order to monitor bacterial growth. A positive control group (including inoculated medium) and a negative control group (with medium only) were included. The MIC was determined as the lowest concentration of McC variant that inhibited bacterial growth (preventing an increase in the absorbance reading). All tests were performed in triplicate.

pepsin = test: Remaining amount by RP-HPLC after pepsin treatment; type: in vitro ADME; conditions: pepsin (isolated protease); pepsin treated for 3 h; read-out RP-HPLC; Table S2
Method: (§3) To test whether the variants were tolerant to trypsin or other digestive enzymes, the amount of the remaining McC and its analogues remaining was determined by RP-HPLC after trypsin, pepsin, and chymotrypsin treated for 3 h (Table S2), and the inhibition zones of trypsin-treated variants were tested using the same method (Table 2).

chymotrypsin = test: Remaining amount by RP-HPLC after chymotrypsin treatment; type: in vitro ADME; conditions: chymotrypsin (isolated protease); chymotrypsin treated for 3 h; read-out RP-HPLC; Table S2
Method: as §3

[1] = HPLC retention time according to hydrophobicity; type: physicochemical; conditions: chromatographic, C18 5 μm 9.4 × 250 mm; A 0.1% trichloroacetic acid, B 0.1% trichloroacetic acid with 90% acetonitrile; linear 5% B to 50% B; 1 mL/min; 35 °C; 280 nm; varies according to hydrophobicity
Method: To find the separation peaks of the variants, wildtype McC and blank control fermentation broth samples were tested by HPLC. The separation peaks with obvious differences (those with retention times of 11 min and 17 min) were purified and the antimicrobial activity was determined. […] Therefore, the molecular weight was further analyzed by mass spectrometry, and the separation peak at approximately 17 min was confirmed to be that of the desired purified McC. Since the mutations in this study involved only one amino acid and had few effects on the properties of the peptides, we predicted that the separation peaks of the variants should fluctuate around approximately 17 min according to their hydrophobicity. […] The purity of the purified variants was determined by HPLC to be greater than 80% (Table 3).
The lyophilized supernatants were dissolved in deionized water, filtered through 0.22 μm aqueous-phase filter membranes, and purified by high-performance liquid chromatography (HPLC, Agilent Technologies Inc., Palo Alto, CA, USA) with C18 column (5 μm 9.4 × 250 mm, Agilent Technologies Inc., Palo Alto, CA, USA). The mobile phase was composed of 0.1% (v/v) trichloroacetic acid (solvent A) and 0.1% (v/v) trichloroacetic acid with 90% (v/v) acetonitrile (solvent B). A linear gradient from 95% A/5% B to 50% A/50% B was used with a flow rate of 1 mL/min, a sample volume of 10 μL, a column temperature of 35 °C, and a detection wavelength of 280 nm. Electrospray ionization mass spectrometry (ESI-MS) was used to compare the McC variant masses with the expected masses. The relationships between the relative abundances and the mass-to-charge ratios (m/z) of the ions were determined to confirm the identities of the experimentally produced McC variants.

Yej^+rimL^− strain [2] = test: organism not typed; type: cell-based; conditions: agar diffusion; for bacteriostatic activity after trypsin treatment, Yej^+rimL^− / Diameters of the inhibition zones, Trypsin-Treated Group, Yej^+rimL^−: supernatant treated with trypsin 50 μg/mL, 37 °C, 3 h; for Diameters of the inhibition zones, Trypsin-Untreated Group, Yej^+rimL^−: 200 μL fermentation supernatant, 1 × 10^5 CFU/mL, 4 °C 1 h then 37 °C 24 h, chloramphenicol 100 μL of 0.25 μg/mL; for Diameters of the inhibition zones, Trypsin-Untreated Group, Yej^+rimL^− / Diameters of the inhibition zones, Trypsin-Treated Group, Yej^+rimL^−: dash = no zone; for Diameters of the inhibition zones, Trypsin-Treated Group, Yej^+rimL^−: pH 6.8, 37 °C 24 h
Text: To analyze the antimicrobial ability of the variants, we measured the inhibition zones of all 21 variants by the agar diffusion method. The peptide moiety of McC was recognized by a YejABEf-peptide transporter. The rimL contains an acetyltransferase domain homologous to MccE which can detoxify and provide resistance to McC [17]. The overexpression of the YejABEF gene cluster and rimL gene knockout made the strain hypersensitive to McC. Therefore, the Yej^+rimL^− strain was selected as the sensitive indicator bacterial strain.
as §1, §2

Yej^+rimL^− strain [3] = type: cell-based; conditions: HPLC-purified variants; microdilution in LB, 96-well; 0.125 to 100 µg/mL; 1.0 × 10^5 CFU/mL; 37 °C 24 h; absorbance 600 nm; triplicate
Method: To accurately characterize the bacteriostatic abilities of the variants, the MICs of the pure McC variants toward the McCsensitive strain Yej^+rimL^− were determined. The MICs of all variants were lower than that of wild-type McC. From smallest to largest MIC, the above five variants were in the following order: R2A, R2T, R2Q, R2S, and R2H. […] Although the diameter of the inhibitory zone of R2M was smaller than those of the above five variants, the bacteriostatic ability of R2M was second only to R2T/R2Q, and the MIC was 50 μg/mL.
as §2

[4] = Remaining amount by RP-HPLC after pepsin treatment; type: in vitro ADME; conditions: isolated enzyme pepsin; pepsin treated for 3 h; read-out RP-HPLC; Table S2
Method: as §3

[5] = Remaining amount by RP-HPLC after chymotrypsin treatment; type: in vitro ADME; conditions: isolated enzyme chymotrypsin; chymotrypsin treated for 3 h; read-out RP-HPLC; Table S2
Method: as §3

indicator bacteria = conditions: second to seventh codons of mccA replaced; cited from earlier work
Text: The heptapeptide precursor of McC, f-MRTGNAN, is encoded by the first gene in the mcc gene clusters, mccA [11]. Considering its protein nature, it is suitable for gene-based peptide engineering. Kazakov et al. first applied site-directed mutagenesis on the mccA gene, systematically replacing the second to seventh codons of mccA encoding 19 standard amino acids for a total of 114 mutations.

| SMILES | bacteriostatic effect on indicator strain K88 (E. coli K88) | remaining at 3 h (pepsin) [%] | remaining at 3 h (chymotrypsin) [%] | Retention Time [1] [min] | bacteriostatic activity after trypsin treatment, Yej^+rimL^− (Yej^+rimL^− strain [2]) | Diameters of the inhibition zones, Trypsin-Untreated Group, Yej^+rimL^− (Yej^+rimL^− strain [2]) [mm] | Diameters of the inhibition zones, Trypsin-Treated Group, Yej^+rimL^− (Yej^+rimL^− strain [2]) [mm] | MIC (Yej^+rimL^− strain [3]) [µg/mL] | antimicrobial activity after trypsin treatment, K88 (E. coli K88) | Diameters of the inhibition zones, Trypsin-Untreated Group, K88 (E. coli K88) [mm] | Diameters of the inhibition zones, Trypsin-Treated Group, K88 (E. coli K88) [mm] | remaining at 3 h [4] [%] | remaining at 3 h [5] [%] | antimicrobial activity of mccA substitution variants (indicator bacteria) |
| --- | --- | --- | --- | --- | --- | --- | --- | --- | --- | --- | --- | --- | --- | --- |
| CSCC[C@H](NC=O)C(=O)N1CCC[C@H]1C(=O)N[C@H](C(=O)NCC(=O)N[C@@H](CC(N)=O)C(=O)N[C@@H](C)C(=O)N[C@@H](CC(=O)O)C(=O)NP(=O)(OCCCN)OC[C@H]1O[C@@H](n2cnc3c(N)ncnc32)[C@H](O)[C@@H]1O)[C@@H](C)O (stereo partly shown) [R2P] (HELM PEPTIDE1{[O=C[*:2]].M.P.T.G.N.A.[NCCCOP(=O)(NC(=O)[C@H](CC(=O)O)N[*:1])OC[C@H]1O[C@@H](n2cnc3c(N)ncnc32)[C@H](O)[C@@H]1O]}$$$$V2.0) | no bacteriostatic effects | 86.9 ± 1.24 | 42.8 ± 0.76 |  |  |  |  |  |  |  |  |  |  |  |
| CSCC[C@H](NC=O)C(=O)N[C@@H](C)C(=O)N[C@H](C(=O)NCC(=O)N[C@@H](CC(N)=O)C(=O)N[C@@H](C)C(=O)N[C@@H](CC(=O)O)C(=O)NP(=O)(OCCCN)OC[C@H]1O[C@@H](n2cnc3c(N)ncnc32)[C@H](O)[C@@H]1O)[C@@H](C)O (stereo partly shown) [R2A] (HELM PEPTIDE1{[O=C[*:2]].M.A.T.G.N.A.[NCCCOP(=O)(NC(=O)[C@H](CC(=O)O)N[*:1])OC[C@H]1O[C@@H](n2cnc3c(N)ncnc32)[C@H](O)[C@@H]1O]}$$$$V2.0) |  |  |  | 17.167 | exhibited antibacterial effects | 21.82 | 19.07 | 12.5 (≈ 11.4 µM) | retained their antimicrobial activity | 16.53 | 11.96 | 92.2 ± 1.04 | 42.2 ± 0.86 | bacteriostatic |
| CSCC[C@H](NC=O)C(=O)N[C@@H](Cc1c[nH]cn1)C(=O)N[C@H](C(=O)NCC(=O)N[C@@H](CC(N)=O)C(=O)N[C@@H](C)C(=O)N[C@@H](CC(=O)O)C(=O)NP(=O)(OCCCN)OC[C@H]1O[C@@H](n2cnc3c(N)ncnc32)[C@H](O)[C@@H]1O)[C@@H](C)O (stereo partly shown) [R2H] (HELM PEPTIDE1{[O=C[*:2]].M.H.T.G.N.A.[NCCCOP(=O)(NC(=O)[C@H](CC(=O)O)N[*:1])OC[C@H]1O[C@@H](n2cnc3c(N)ncnc32)[C@H](O)[C@@H]1O]}$$$$V2.0) |  |  |  | 16.872 | exhibited antibacterial effects | 18.39 | 15.92 | >100 | retained their antimicrobial activity | 15.55 | 11.99 | 82.29 ± 0.52 | 42.7 ± 0.69 | bacteriostatic |
| CSCC[C@H](NC=O)C(=O)N[C@@H](CS)C(=O)N[C@H](C(=O)NCC(=O)N[C@@H](CC(N)=O)C(=O)N[C@@H](C)C(=O)N[C@@H](CC(=O)O)C(=O)NP(=O)(OCCCN)OC[C@H]1O[C@@H](n2cnc3c(N)ncnc32)[C@H](O)[C@@H]1O)[C@@H](C)O (stereo partly shown) [R2C] (HELM PEPTIDE1{[O=C[*:2]].M.C.T.G.N.A.[NCCCOP(=O)(NC(=O)[C@H](CC(=O)O)N[*:1])OC[C@H]1O[C@@H](n2cnc3c(N)ncnc32)[C@H](O)[C@@H]1O]}$$$$V2.0) | no bacteriostatic effects | 82.5 ± 0.98 | 40.9 ± 1.22 |  |  |  |  |  |  |  |  |  |  |  |
| CSCC[C@H](NC=O)C(=O)N[C@@H](CCC(=O)O)C(=O)N[C@H](C(=O)NCC(=O)N[C@@H](CC(N)=O)C(=O)N[C@@H](C)C(=O)N[C@@H](CC(=O)O)C(=O)NP(=O)(OCCCN)OC[C@H]1O[C@@H](n2cnc3c(N)ncnc32)[C@H](O)[C@@H]1O)[C@@H](C)O (stereo partly shown) [R2E] (HELM PEPTIDE1{[O=C[*:2]].M.E.T.G.N.A.[NCCCOP(=O)(NC(=O)[C@H](CC(=O)O)N[*:1])OC[C@H]1O[C@@H](n2cnc3c(N)ncnc32)[C@H](O)[C@@H]1O]}$$$$V2.0) | no bacteriostatic effects | 90.72 ± 0.74 | 38.4 ± 0.97 |  |  |  |  |  |  |  |  |  |  |  |
| CSCC[C@H](NC=O)C(=O)N[C@@H](CCSC)C(=O)N[C@H](C(=O)NCC(=O)N[C@@H](CC(N)=O)C(=O)N[C@@H](C)C(=O)N[C@@H](CC(=O)O)C(=O)NP(=O)(OCCCN)OC[C@H]1O[C@@H](n2cnc3c(N)ncnc32)[C@H](O)[C@@H]1O)[C@@H](C)O (stereo partly shown) [R2M] (HELM PEPTIDE1{[O=C[*:2]].M.M.T.G.N.A.[NCCCOP(=O)(NC(=O)[C@H](CC(=O)O)N[*:1])OC[C@H]1O[C@@H](n2cnc3c(N)ncnc32)[C@H](O)[C@@H]1O]}$$$$V2.0) |  |  |  | 19.622 | exhibited antibacterial effects | 21.57 | 14.31 | 50 (≈ 43.4 µM) |  | 12.37 |  | 88.7 ± 0.93 | 43.8 ± 0.68 | loss of antimicrobial activity |
| CSCC[C@H](NC=O)C(=O)N[C@@H](CC(N)=O)C(=O)N[C@H](C(=O)NCC(=O)N[C@@H](CC(N)=O)C(=O)N[C@@H](C)C(=O)N[C@@H](CC(=O)O)C(=O)NP(=O)(OCCCN)OC[C@H]1O[C@@H](n2cnc3c(N)ncnc32)[C@H](O)[C@@H]1O)[C@@H](C)O (stereo partly shown) [R2N] (HELM PEPTIDE1{[O=C[*:2]].M.N.T.G.N.A.[NCCCOP(=O)(NC(=O)[C@H](CC(=O)O)N[*:1])OC[C@H]1O[C@@H](n2cnc3c(N)ncnc32)[C@H](O)[C@@H]1O]}$$$$V2.0) | no bacteriostatic effects | 88.79 ± 0.88 | 37.7 ± 1.1 |  |  |  |  |  |  |  |  |  |  |  |
